# Laboratory results published in US20220144850A1, “INDOLO HEPTAMYL OXIME ANALOGUE AS PARP INHIBITOR” (Chia Tai Tianqing Pharmaceutical Group Co., Ltd., priority 2019, published 2022).
# Experiments:
# Type in all cases: in vitro ADME
# [1] = Plasma protein binding rate, SD rat plasma (equilibrium dialysis); conditions: Sprague-Dawley, SD rats plasma, dialysis 4 h at 37° C.
# Experimental: Experimental Example 5: Study on Plasma Protein Binding Rate
# The protein binding rates of the compounds disclosed herein in plasma of human, CD-1 mice and SD rats were determined. 796 μL of blank plasma was taken from human, CD-1 mice and SD rats, and added with 4 μL of test compound working solution (400. μM) or warfarin working solution (400 μM) to achieve a final concentration of 2 μM of both the test compound and the warfarin in the plasma sample. The samples were mixed well. The final concentration of organic phase DMSO was 0.5%; 50 μL of test compound and warfarin plasma sample was pipetted into a sample receiving plate (three parallels), and a corresponding volume of blank plasma or buffer was immediately added such that the final volume of each sample well was 100 μL. The volume ratio of plasma to dialysis buffer was 1:1, and 400 μL of stop solution was added to these samples, which were used as TO samples for determination of recovery rate and stability. The TO samples were stored at 2-8° C. for subsequent treatment with other dialyzed samples; 150 μL of the test compound and warfarin plasma sample was added to a drug delivery end of each dialysis well, and 150 μL of blank dialysis buffer was added to a corresponding receiving end of the dialysis well. The dialysis plate was then sealed with a gas permeable membrane and placed in a humid, 5% CO2 incubator and incubated at 37° C. for 4 h while shaking at about 100 rpm. After the dialysis was completed, 50 μL of the dialyzed buffer sample and dialyzed plasma sample were pipetted to a new sample receiving plate. A corresponding volume of corresponding blank plasma or buffer was added to the samples such that the final volume of each sample well was 100 μL, and the volume ratio of plasma to dialysis buffer was 1:1. All samples were subjected to LC/MS analysis after protein precipitation, and the protein binding rates and the recovery rates were calculated by the following formulas: protein unbinding rate (%)=100×drug concentration passing through dialysis membrane/drug concentration not passing through dialysate; protein binding rate (%)=100−protein unbinding rate (%); recovery rate (%)=100×(drug concentration passing through dialysis membrane+drug concentration not passing through dialysate)/total drug concentration before dialysis.
# [2] = Metabolic stability in liver microsomes, human; conditions: Human liver microsomes 0.5 mg/mL, 1 μM compound, NADPH, 37° C.
# Experimental: (§1) Experimental Example 7. Metabolic Stability in Liver Microsomes
# (§2) Experimental objective: to test the metabolic stability of test compounds in liver microsomes of three species.
# (§3) Experimental method: 1 μM test compound and a microsome (0.5 mg/mL) were incubated at 37° C. in the presence of an NADPH regeneration system; positive controls were testosterone (3A4 substrate), propylamine propiophenone (2D6 substrate) and diclofenac (2C9 substrate), and also at 37° C., a positive control was incubated with a microsome (0.5 mg/mL) in the presence of an NADPH regenerating system; the reaction was stopped by direct mixing of the sample with cold acetonitrile containing an internal standard at various time points (0, 5, 10, 20, 30 and 60 min); the compound and microsome were incubated for 60 min in the absence of an NADPH regenerating system; one parallel (n=1) was set at each time point; the samples were analyzed by LC/MS/MS; the concentration of the compound was characterized by the ratio of the analyte peak area to the internal standard peak area.
# CYP2C9 = target: T1, CYP2C9 (Homo sapiens, UniProt P11712); assay: Inhibition against cytochrome P450 isoenzyme, human liver microsomes
# T1 construct: a human liver microsome solution; from tissue; host or cells: human liver microsomes
# T1 sequence (P11712 whole entry): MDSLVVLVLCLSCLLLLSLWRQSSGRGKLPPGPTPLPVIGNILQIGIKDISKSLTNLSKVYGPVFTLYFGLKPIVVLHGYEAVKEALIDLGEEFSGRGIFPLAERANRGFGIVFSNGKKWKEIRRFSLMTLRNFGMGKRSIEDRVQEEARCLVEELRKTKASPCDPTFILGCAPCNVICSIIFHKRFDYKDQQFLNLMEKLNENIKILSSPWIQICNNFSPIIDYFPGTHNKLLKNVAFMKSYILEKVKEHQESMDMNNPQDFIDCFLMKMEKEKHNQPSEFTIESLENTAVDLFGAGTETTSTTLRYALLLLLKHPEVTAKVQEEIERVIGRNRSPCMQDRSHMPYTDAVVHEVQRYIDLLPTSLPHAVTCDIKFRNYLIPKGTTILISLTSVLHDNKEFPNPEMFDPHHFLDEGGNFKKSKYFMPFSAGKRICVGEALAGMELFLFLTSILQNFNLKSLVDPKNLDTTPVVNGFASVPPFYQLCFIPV
# Experimental: (§4) Experimental Example 6: Study on Inhibition Against Cytochrome P450 Isoenzyme
# (§5) The inhibition of the test compounds against different subtypes of the human cytochrome P450 isoenzyme was determined. Test compounds, a standard inhibitor (100×final concentration) and a mixed substrate working solution were prepared; the microsomes frozen in a refrigerator at −80° C. were taken out and thawed. 2 μL of a solution of the test compound and the standard inhibitor was added to corresponding wells, and 2 μL of a corresponding solvent was added to a non-inhibitor control (NIC) well and a blank control (Blank) well; then, 20 μL of a solution of mixed substrate was added to corresponding wells except for the Blank well (adding 20 μL of PB to the Blank well); a human liver microsome solution (marking the date after use and immediately putting back to a refrigerator) was prepared and then added to all wells at 158 μL per well; the sample plate was put into a 37° C. water bath for pre-incubation, and then a coenzyme factor (NADPH) solution was prepared; after 10 min, the NADPH solution was added to all the wells at 20 μL per well, and the sample plate was shaken to mix the mixture well and then incubated in a 37° C. water bath for 10 min; at corresponding time points, 400 μL of cold acetonitrile solution (internal standard: 200 ng/mL tolbutamide and labetalol) was added to stop the reaction; after being mixed well, the mixture in the sample plate was centrifuged at 4,000 rpm for 20 min to precipitate proteins; 200 μL of supernatant was collected and added into 100 μL of water, and the mixture was mixed well and then assayed by LC/MS/MS.
# CYP2C19 = target: T2, CYP2C19 (Homo sapiens, UniProt P33261); assay: as above
# T2 construct: a human liver microsome solution; from tissue; host or cells: human liver microsomes
# T2 sequence (P33261 whole entry): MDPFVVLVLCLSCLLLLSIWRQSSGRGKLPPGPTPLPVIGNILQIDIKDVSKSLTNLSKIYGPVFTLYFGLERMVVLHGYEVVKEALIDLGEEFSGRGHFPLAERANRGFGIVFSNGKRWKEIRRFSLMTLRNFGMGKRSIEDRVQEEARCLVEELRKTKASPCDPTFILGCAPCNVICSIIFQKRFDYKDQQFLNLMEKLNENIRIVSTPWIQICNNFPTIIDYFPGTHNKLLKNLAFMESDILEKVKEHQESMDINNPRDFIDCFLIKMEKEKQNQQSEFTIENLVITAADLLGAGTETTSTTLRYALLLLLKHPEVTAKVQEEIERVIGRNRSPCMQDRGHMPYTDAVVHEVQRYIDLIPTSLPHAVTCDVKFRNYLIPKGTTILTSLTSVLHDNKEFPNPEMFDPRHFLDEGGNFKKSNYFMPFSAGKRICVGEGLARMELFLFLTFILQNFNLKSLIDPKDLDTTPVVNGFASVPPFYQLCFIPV
# Experimental: as §4, §5
# CYP3A4-M = target: T3, CYP3A4-M (Homo sapiens, UniProt P08684); assay: as above
# T3 construct: a human liver microsome solution; from tissue; host or cells: human liver microsomes
# T3 sequence (P08684 whole entry): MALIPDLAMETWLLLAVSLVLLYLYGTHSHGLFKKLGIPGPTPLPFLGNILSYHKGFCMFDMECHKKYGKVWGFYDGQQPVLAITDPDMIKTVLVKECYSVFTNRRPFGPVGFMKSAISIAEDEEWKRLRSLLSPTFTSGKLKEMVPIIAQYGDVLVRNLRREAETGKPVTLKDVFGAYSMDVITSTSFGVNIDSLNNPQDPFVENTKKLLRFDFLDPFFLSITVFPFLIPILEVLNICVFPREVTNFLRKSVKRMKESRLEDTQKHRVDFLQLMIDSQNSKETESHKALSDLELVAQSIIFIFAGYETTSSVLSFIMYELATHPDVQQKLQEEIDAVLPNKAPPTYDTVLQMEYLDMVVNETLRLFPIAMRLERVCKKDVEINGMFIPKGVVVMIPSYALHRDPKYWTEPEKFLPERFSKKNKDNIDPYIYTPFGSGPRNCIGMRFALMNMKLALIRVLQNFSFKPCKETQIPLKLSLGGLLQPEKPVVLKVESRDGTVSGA
# Experimental: as §4, §5
# CYP1A2 = target: T4, CYP1A2 (Homo sapiens, UniProt P05177); assay: as above
# T4 construct: a human liver microsome solution; from tissue; host or cells: human liver microsomes
# T4 sequence (P05177 1-516): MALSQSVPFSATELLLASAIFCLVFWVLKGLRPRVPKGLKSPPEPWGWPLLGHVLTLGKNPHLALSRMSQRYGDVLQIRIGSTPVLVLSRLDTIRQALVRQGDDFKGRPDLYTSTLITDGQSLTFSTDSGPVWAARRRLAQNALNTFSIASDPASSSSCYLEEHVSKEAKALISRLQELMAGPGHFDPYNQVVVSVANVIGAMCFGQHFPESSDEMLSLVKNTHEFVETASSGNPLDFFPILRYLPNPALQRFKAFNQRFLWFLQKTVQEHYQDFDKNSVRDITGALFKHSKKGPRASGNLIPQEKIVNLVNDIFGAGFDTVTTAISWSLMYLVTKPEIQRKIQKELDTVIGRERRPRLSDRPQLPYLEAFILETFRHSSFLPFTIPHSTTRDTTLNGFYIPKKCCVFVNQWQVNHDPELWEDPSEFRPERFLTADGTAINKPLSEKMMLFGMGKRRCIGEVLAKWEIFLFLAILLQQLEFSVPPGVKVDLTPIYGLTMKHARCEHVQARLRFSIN
# Experimental: as §4, §5
# CYP2D6 = target: T5, CYP2D6 (Homo sapiens, UniProt P10635); assay: as above
# T5 construct: a human liver microsome solution; from tissue; host or cells: human liver microsomes
# T5 sequence (P10635 whole entry): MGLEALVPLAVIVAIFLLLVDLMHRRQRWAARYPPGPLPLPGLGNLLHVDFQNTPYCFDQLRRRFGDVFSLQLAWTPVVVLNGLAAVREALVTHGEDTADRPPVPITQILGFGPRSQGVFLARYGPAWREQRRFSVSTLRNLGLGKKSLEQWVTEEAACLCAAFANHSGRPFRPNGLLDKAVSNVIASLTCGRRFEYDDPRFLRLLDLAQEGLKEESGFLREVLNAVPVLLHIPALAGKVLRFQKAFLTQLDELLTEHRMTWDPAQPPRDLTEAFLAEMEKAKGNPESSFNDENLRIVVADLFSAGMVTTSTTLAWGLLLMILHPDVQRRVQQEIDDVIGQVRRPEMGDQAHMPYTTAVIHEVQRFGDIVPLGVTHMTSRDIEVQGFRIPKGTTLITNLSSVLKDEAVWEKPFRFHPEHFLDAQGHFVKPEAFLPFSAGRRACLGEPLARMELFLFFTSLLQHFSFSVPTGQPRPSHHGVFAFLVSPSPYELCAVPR
# Experimental: as §4, §5
# [3] = Metabolic stability in liver microsomes, mouse; conditions: Mouse liver microsomes 0.5 mg/mL, 1 μM compound, NADPH, 37° C.
# Experimental: as §1, §2, §3
SMILES,"fraction unbound at 4 h, 2 μM [1]",Residual content after 60 min of incubation [2] [%],IC50 (CYP2C9) [µM],IC50 (CYP2C19) [µM],IC50 (CYP3A4-M) [µM],IC50 (CYP1A2) [µM],IC50 (CYP2D6) [µM],Residual content after 60 min of incubation [3] [%]
CC1(c2ccc(-c3[nH]c4cc(F)cc5c4c3CONC5=O)cc2)CCCN1 (centres unmarked) [Example 25_A],0.077,35.9,> 50,8.33,32.9,> 50,11.6,40.7
"CC1(c2ccc(-c3[nH]c4cc(F)cc5c4c3CONC5=O)cc2F)CCCN1 (single isomer, unassigned) [Example 26_A]",0.097,29.6,49.7,3.31,14.1,> 50,20.2,57.7
CC1(c2ccc(-c3[nH]c4cccc5c4c3CONC5=O)cc2)CCCN1 (centres unmarked) [Example 6_A],0.176,53.7,–,–,–,–,–,45.6
"O=C1NOCc2c(-c3ccc(C4CCCN4)cc3)[nH]c3cc(F)cc1c23 (single isomer, unassigned) [Example 24_A]",0.036,60.4,> 50,17.2,> 50,29.5,6.98,52.3
O=C1NOCc2c(-c3ccc(C4CCCN4)c(F)c3)[nH]c3cccc1c23 (centres unmarked) [Example 11_A],0.035,73.8,> 50,15.5,35,> 50,19.2,57.1
